Patent US8329739B2, “Phenylimidazole compounds” (Otsuka Pharmaceutical Factory, Inc., priority 2009, dated 2012)

Columns and labels:
[1] = Lipid-improving action in SD rats: blood biochemical examinations (triglyceride, HDL-cholesterol); format: in vivo; conditions: Rattus norvegicus, po, 100 mg/kg orally every day for 5 days or 2 weeks, plasma 4 hours after final administration, vs control group, read-out: Rate of increase in HDL-cholesterol levels (%)
Protocol: (§1) 8-week-old SD rats (Japan Charles River: average body weight of about 350 g) were used. 5% aqueous gum arabic suspension, which was prepared such that the dosage of a compound of the present invention was 100 mg/kg body weight, was orally administered to the experimental group in an amount of 5 ml/kg body weight. 5% aqueous gum arabic suspension (not containing any compounds of the present invention) was orally administered to the control group in an amount of 5 ml/kg body weight. The rats were grouped according to their body weight at 8 weeks of age such that each group had 5 rats. The test compounds were orally administered every day at a fixed time for 5 days or 2 weeks, starting when the rats were 9 weeks old. Body weight was regularly measured during the period of oral administration, and the body weight gain-inhibiting effect was observed. 4 hours after the final administration of the test compound, blood was collected from the vein, plasma was separated from the collected blood, and blood biochemical examinations (triglyceride, HDL-cholesterol) were carried out.
Blood biochemical examinations of rats in the control group and the experimental group were performed. The rates of change (%) were calculated according to the following formulae from the measured values obtained from the blood biochemical examinations. […] Rate of decrease in triglyceride levels (%)=[(mean value of the control group)−(mean value of the experimental group)]/(mean value of the control group)×100 Rate of increase in HDL-cholesterol levels (%)=[(mean value of the experimental group)−(mean value of the control group)]/(mean value of the control group)×100

[2] = Body weight gain-inhibiting effect in normal SD rats; format: in vivo; conditions: Rattus norvegicus, po, 100 mg/kg orally every day for 5 days or 2 weeks, vs control group, read-out: Rate of inhibition of body weight gain (%)
Protocol: as §1
The rate of inhibition of body weight gain (%) was calculated from the measured body weights of rats in the control group and the experimental group, according to the following formula. […] Rate of inhibition of body weight gain (%)=[(mean value of the control group)−(mean value of the experimental group)]/(mean value of the control group)×100

LPL (lipoprotein lipase) [3] = molecular target: T1, LPL (lipoprotein lipase) (Mus musculus, UniProt P11152); test: Confirmation test of LPL activation effect in mouse skeletal muscle cells (C2C12 cells); format: cell-based; conditions: 8 hours exposure, vs control group
T1 construct: endogenous in cells; host or cells: C2C12 cells, differentiated
T1 sequence (P11152 28-474): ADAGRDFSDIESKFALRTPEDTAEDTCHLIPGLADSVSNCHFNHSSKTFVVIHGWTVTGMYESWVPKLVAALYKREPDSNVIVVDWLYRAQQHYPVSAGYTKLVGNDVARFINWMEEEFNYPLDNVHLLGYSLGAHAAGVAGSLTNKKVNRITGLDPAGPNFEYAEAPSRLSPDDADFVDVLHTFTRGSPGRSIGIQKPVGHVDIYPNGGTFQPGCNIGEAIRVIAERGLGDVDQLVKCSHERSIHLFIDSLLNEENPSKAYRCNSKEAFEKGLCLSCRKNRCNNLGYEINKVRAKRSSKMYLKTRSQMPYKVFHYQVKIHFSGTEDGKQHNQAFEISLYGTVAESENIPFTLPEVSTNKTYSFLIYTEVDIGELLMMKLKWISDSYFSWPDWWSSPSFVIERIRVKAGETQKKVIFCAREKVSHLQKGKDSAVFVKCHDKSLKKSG
Summary of the method: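 Differentiated human skeletal muscle myoblasts or mouse C2C12 cells were exposed to compound at 10 μM or 30 μM in 0.3% DMSO medium for 8 h, then LPL was released with heparin-containing Tris-HCl buffer (10 min, 37° C). Supernatant LPL activity was taken as the fluorescence increase 10–70 min after adding substrate; % increase is calculated versus the DMSO control mean.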

[4] = Confirmation test of anti-obesity action in dietary-obese mice; format: in vivo; conditions: AKR/J mice on high-fat diet (60% kcal fat), 20 mg/kg orally every day for 4 weeks, vs control group
Protocol: AKR/J mice were used. These mice were fed a high-fat diet with 60% kcal fat, and a model of dietary obesity was developed. 5% aqueous gum arabic suspension, which was prepared such that the dosage of a compound of the present invention was 20 mg/kg body weight, was orally administered to the experimental group of obese mice in an amount of 5 ml/kg body weight. […] The mice were grouped according to body weight. The test suspension was administered everyday at a fixed time for 4 weeks. Body weight was measured during the period of oral administration, and the body weight gain-inhibiting effect was confirmed. The rate of body weight reduction (%) was calculated from the measured body weights of mice in the control group and the experimental group, according to the following formula. […] Rate of body weight reduction (%)=[(mean value of the control group)−(mean value of the experimental group)]/(mean value of the control group)×100

LPL (lipoprotein lipase) [5] = molecular target: T2, LPL (lipoprotein lipase) (Homo sapiens, UniProt P06858); test: Confirmation test of LPL activation effect in human skeletal muscle cells; format: cell-based; conditions: 8 hours exposure, vs control group
T2 construct: endogenous in cells; host or cells: human skeletal muscle myoblasts, differentiated
T2 sequence (P06858 28-475): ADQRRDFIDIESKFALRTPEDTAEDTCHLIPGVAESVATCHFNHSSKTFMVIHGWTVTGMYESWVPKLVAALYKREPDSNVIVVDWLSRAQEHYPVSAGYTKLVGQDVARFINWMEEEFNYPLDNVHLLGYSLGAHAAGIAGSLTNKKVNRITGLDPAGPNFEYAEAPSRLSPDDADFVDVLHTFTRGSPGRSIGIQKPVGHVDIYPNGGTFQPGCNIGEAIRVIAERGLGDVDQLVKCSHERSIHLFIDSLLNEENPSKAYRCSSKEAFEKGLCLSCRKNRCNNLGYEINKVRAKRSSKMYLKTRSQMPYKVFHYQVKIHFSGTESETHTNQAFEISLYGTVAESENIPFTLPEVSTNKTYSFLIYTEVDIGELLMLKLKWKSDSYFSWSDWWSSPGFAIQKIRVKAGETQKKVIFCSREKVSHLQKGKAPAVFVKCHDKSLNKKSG
Protocol: Human skeletal muscle cells (human skeletal muscle myoblasts) or mouse skeletal muscle cells (C2C12 cells) that were seeded onto plates, cultured, and differentiated were exposed to a 0.3% dimethyl sulfoxide-containing culture medium in which the compound of the present invention was dissolved (concentration: 10 μM or 30 μM). The medium was removed 8 hours after exposure, 10 mM of Tris-HCl buffer (150 mM NaCl, 10 μ/mL; containing heparin sodium) was added to the cells, and the cells were incubated at 37° C. in the presence of 5% CO2 for 10 minutes. LPL activity in the supernatant was measured using an LPL activity assay kit (made by Roar Biomedical Inc.). LPL activity was evaluated based on the increase in fluorescence intensity 10 to 70 minutes after mixing the supernatant with the LPL substrate. The mean value of the increase in fluorescence intensity of the cells exposed to a 0.3% dimethyl sulfoxide-containing culture medium […] was used as mean value of the control group. Note that the compounds of Examples 18, 19, 32, 45 and 57 were tested using human skeletal muscle cells, and other compounds were tested using mouse skeletal muscle cells. The rate of increase (%) was calculated from the measured values of LPL activity in the control group and the experimental group, according to the following formula. Rate of increase in LPL activity (%)=[(mean value of the experimental group)−(mean value of the control group)]/(mean value of the control group)×100

SMILES	change in vivo at 100 mg/kg [1]	inhibition in vivo at 100 mg/kg [2]	Rate of increase in LPL activity (LPL (lipoprotein lipase) [3]; amount of addition 10 μM)	Rate of increase in LPL activity (LPL (lipoprotein lipase) [3]; amount of addition 30 μM)	melting point	Rate of body weight reduction (%) [4]	Rate of increase in LPL activity (LPL (lipoprotein lipase) [5]; amount of addition 10 μM)	Rate of increase in LPL activity (LPL (lipoprotein lipase) [5]; amount of addition 30 μM)
COc1cc(OCc2ccc(Cl)cc2)ccc1-c1c[nH]c(-c2ccsc2)n1.Cl [Example 70]	34%	14%	22%	87%	238 to 241 °C	–	–	–
COc1cc(OCc2ccc(Br)cc2F)ccc1-c1c[nH]c(-c2ccc(F)cc2)n1.Cl [Example 57]	184%	14%	–	–	> 250 °C	17%	19%	40%
COc1cc(OCc2ccc(Cl)cc2)ccc1-c1c[nH]c(-c2ccc(C(F)(F)F)cc2)n1 [Example 19]	99%	11%	–	–	158 to 162 °C	–	24%	28%
COc1cc(OCc2ccc(C#N)cc2)ccc1-c1c[nH]c(-c2cccc(C(F)(F)F)c2)n1.Cl [Example 74]	64%	6%	10%	55%	248 to 250 °C	–	–	–
COc1cc(-c2c[nH]c(-c3ccc(C(F)(F)F)cc3)n2)ccc1OCc1ccc(Cl)cc1 [Example 32]	16%	8%	–	–	158 to 159 °C	11%	22%	57%
COc1cc(OCc2ccc(Br)cc2F)ccc1-c1c[nH]c(-c2ccc(C(F)(F)F)cc2)n1 [Example 18]	171%	13%	–	–	167 to 170 °C	–	23%	23%
COc1cc(-c2c[nH]c(-c3cccs3)n2)ccc1OCc1ccc(Br)cc1F [Example 67]	15%	7%	22%	34%	177 to 179 °C	–	–	–
COc1cc(OCc2ccc(Br)cc2F)ccc1-c1c[nH]c(-c2ccc(C)cc2)n1 [Example 84]	187%	8%	53%	97%	160 to 162 °C	–	–	–
COc1cc(OCc2ccc(C#N)cc2)ccc1-c1c[nH]c(-c2ccc(F)cc2)n1.Cl [Example 45]	27%	12%	–	–	189 to 191 °C	11%	23%	32%
COc1cc(OCc2ccc(Br)cc2F)ccc1-c1c[nH]c(-c2cccs2)n1.Cl [Example 23]	–	–	40%	95%	249 to 253 °C	13%	–	–
COc1cc(-c2c[nH]c(-c3ccc(F)cc3)n2)ccc1OCc1ccc(Br)cc1F.Cl [Example 52]	36%	6%	–	–	228 to 233 °C	–	–	–
